# Laboratory results reported in patent publication US20230075822A1, “USE OF CASTALAGIN OR ANALOGS THEREOF FOR ANTI-CANCER EFFICACY AND TO INCREASE THE RESPONSE TO IMMUNE CHECKPOINT INHIBITORS” (THE ROYAL INSTITUTION FOR THE ADVANCEMENT OF …, priority 2020, published 2023).
# Test system: CD8^+ T cells
# Assay: Flow cytometry immune profiling of TILs, MCA-205 tumor model
# Format: in vivo, C57BL/6 mice
# Details: SPF mice, castalagin experiment
# Method: FIGS. 7A-C are graphs showing the results of immune cell profiling by flow cytometry in the murine MCA-205 (FIGS. 7A-B) or E0771 (FIG. 7C) tumor model treated with anti-PD-1 and/or CC. The tumors and the spleens were harvested 9 days or 19 days after the first injection of anti-PD-1 mAb into mice bearing MCA-205 or E0771 tumors, respectively. Excised tumors were cut into small pieces and digested in RPMI medium containing Liberase 25 μg/mL (Roche) and DNase1 at 150 Ul/mL (Roche) for 30 minutes at 37° C. and then crushed and filtered twice using 100 and 70 μm cell strainers (Becton & Dickinson). Spleens were crushed in RPMI medium and subsequently filtered through a 100 μm cell strainer. Two million tumor cells or splenocytes were pre-incubated with purified anti-mouse CD16/CD32 (clone 93; eBioscience) for 30 minutes at 4° C., before membrane staining (CD45, CD3, CD4, CD8, PD1, PDL1, ICOS, CXCR3, CCR9, CD45RB, CD62L, CD44). For intracellular staining, the Foxp3 staining kit (eBioscience) was used. Dead cells were excluded using the Live/Dead Fixable aqua blue dead cell stain kit (Life Technologies). […] FIG. 7C is a graph showing the activation of intratumoral CD8^+ T cells (as assessed by MFI of ICOS^+CD8^+ T cells by flow cytometry) in TILs in the E0771 tumor model post-treatment with CC +/−αPD-1. […]
smiles,measurement,value
"O=C1OC[C@H]2OC(=O)c3cc(O)c(O)c(O)c3-c3c(O)c(O)c(O)c4c3C(=O)O[C@H]([C@H]3OC(=O)c5c-4c(O)c(O)c(O)c5[C@@H]3O)[C@@H]2OC(=O)c2cc(O)c(O)c(O)c2-c2c1cc(O)c(O)c2O [castalagin, Castalagin]",TCM CD8^+ T cells (CD45RB^−CD62L^+) in TILs,upregulation of Tom CD8^+ T cells
